Test results: patent US11685744B2, “CDK inhibitors and their use as pharmaceuticals” (Prelude Therapeutics, Incorporated, priority 2020, dated 2023)

How the values were obtained:
CDK4/Cyclin D1 = CDK4/Cyclin D1 (Homo sapiens (Human), UniProt P11802); experiment: CDK4/CyclinD1 enzymatic activity assay (TR-FRET); type: biochemical; conditions: ATP 2 mM, read-out: CDK4_D1 IC50
Experimental: CDK4/CyclinD1 Enzymatic Activity Assay
The inhibitory activity of compounds was evaluated in vitro using TR-FRET assay with white 384-well low volume microplate (Greiner Bio-One). CDK4/Cyclin D1 catalyzed phosphorylation of peptide in the presence and absence of compounds was measured. IC50 determination. Recombinant protein complex CDK4/Cyclin D1, expressed from insect cell, was purchased from ProQinase. Testing compounds were dissolved in DMSO at 0.1 mM and tested in 9-dose IC50 mode. The reaction mixture was prepared by mixing CDK4/CyclinD1 (1 nM final), ULight-4E-BP1 (100 nM final, Perkinelmer, TRF0128-D), and ATP (2 mM final) in assay buffer (20 mM of HEPES pH 7.4, 1 mM of EGTA, 0.05% BSA, 0.005% Tween 20, and 1 mM TCEP). The compound of interest in DMSO was added to each well in 3-fold serial dilution by dispenser (TECAN D300E). After 20 minutes preincubation at room temperature, MgCl2 (10 mM final) was added to initiate the reaction. Following a 60 minutes incubation at 37° C., the reaction was stopped by addition of 2 μL of quenching buffer consisting of Lance detection buffer (Perkinelmer CR97-100C), 2 nM LANCE Ultra Europium-anti-P-4E-BP1 (Perkinelmer, TRF0216-D), 10 mM EDTA, and incubate at room temperature for additional 60 minutes in dark. The reaction signal was measured by Envision multimode plate reader (PerkinElmer, 2102-0010). IC50 values were determined by fitting the data to the standard 4 parameters with Hill Slope using GraphPad Prism software.

[1] = tested on: MCF7 adenocarcinoma cell line; experiment: Cell proliferation studies in MCF7 cells (ATP-Lite, 10 days); type: cell-based; conditions: Homo sapiens, 240 h, read-out: PROLIFERATION_CTG_MCF7 IC50
Experimental: Cell Proliferation Studies in MCF7 Cells
Cell proliferation studies were conducted in MCF7 adenocarcinoma cell line. Cells were maintained in DMEM (Coming, Catalog #: 10-013-CV) supplemented with 10% v/v FBS (Gibco, Catalog #: 26140-079), 1% v/v Penicillin Streptomycin (Gibco, Catalog #15140-122) Cells were seeded in 384-well plates at a density of 100 or 200 cells/well. Compounds dissolved in DMSO were plated in quadruplicate using a digital dispenser (D300E, Tecan) and tested on a 9-point 3-fold serial dilution. Cells were incubated for 10 days in a 37° C. active humidified incubator at 5% CO2. A media exchange and second compound addition were performed on day 5. Cell viability was measured using the ATP-Lite 1-Step Luminescence reagent (Perkin Elmer, Catalog #: 6016731) as per manufacturer's instructions. Luminescence signal was measured with a multimode plate reader (Envision 2105, Perkin Elmer). Raw data files were imported to Dotmatics Screening Ultra for IC50 analysis. Luminescence values were normalized to both background and DMSO controls to obtain a percentage of viable cells relative to DMSO vehicle control.

Sequence of CDK4/Cyclin D1 (P11802 whole entry): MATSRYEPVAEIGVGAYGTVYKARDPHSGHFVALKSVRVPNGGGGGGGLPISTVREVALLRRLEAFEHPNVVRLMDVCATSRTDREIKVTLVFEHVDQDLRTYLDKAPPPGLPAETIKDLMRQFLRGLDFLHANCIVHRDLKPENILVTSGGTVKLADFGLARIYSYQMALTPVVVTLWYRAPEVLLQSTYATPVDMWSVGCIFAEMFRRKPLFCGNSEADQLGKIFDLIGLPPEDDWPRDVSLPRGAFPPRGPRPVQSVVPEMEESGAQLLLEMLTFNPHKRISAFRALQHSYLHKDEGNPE
Sequence of CDK4/Cyclin D1 (P24385 whole entry partner): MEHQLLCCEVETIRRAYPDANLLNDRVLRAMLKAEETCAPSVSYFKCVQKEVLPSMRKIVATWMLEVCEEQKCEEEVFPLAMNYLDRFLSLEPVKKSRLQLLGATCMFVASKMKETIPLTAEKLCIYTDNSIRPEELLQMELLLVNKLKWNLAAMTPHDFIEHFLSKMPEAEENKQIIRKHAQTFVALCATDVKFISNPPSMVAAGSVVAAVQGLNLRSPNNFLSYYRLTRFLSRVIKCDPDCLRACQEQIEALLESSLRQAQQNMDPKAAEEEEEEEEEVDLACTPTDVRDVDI

Row | Structure (SMILES) | IC50 (CDK4/Cyclin D1) [nM] | IC50 [1] [nM]
1 | Cc1c(-c2nc(Nc3ccc(C4CC[C@H]5CN(C)C(=O)CN45)cn3)ncc2F)sc2c1nc(C)n2C(C)C (single isomer, unassigned) [Example 118] | ≤ 20 | 200 to 2000
2 | CCN1CCC(c2ccc(Nc3ncc(F)c(-c4sc5c(nc(C)n5C5CCCC5)c4C)n3)nc2)CC1 [Example 5, 4-(3-Cyclopentyl-2,6-dimethyl-3H-thieno[2,3-d]imidazol-5-yl)-N-(5-(1-ethylpiperidin-4-yl)pyridin-2-yl)-5-fluoro-pyrimidin-2-amine] | 20 to 200 | 20 to 200
3 | Cc1c(-c2nc(Nc3ccc(C4CCN(C)CC4)cn3)ncc2F)sc2c1nc(C)n2C1CCCC1 [Example 6, 4-(3-Cyclopentyl-2,6-dimethyl-3H-thieno[2,3-d]imidazol-5-yl)-5-fluoro-N-(5-(1-methylpiperidin-4-yl)pyridin-2-yl)pyrimidin-2-amine] | ≤ 20 | 20 to 200
4 | Cc1c(-c2nc(Nc3ccc(N4CCN(C)CC4)cn3)ncc2F)sc2c1nc(C)n2C1CCCC1 [Example 7, 4-(3-Cyclopentyl-2,6-dimethyl-3H-thieno[2,3-d]imidazol-5-yl)-5-fluoro-N-(5-(4-methyl-piperazin-1-yl)pyridin-2-yl)pyrimidin-2-amine] | ≤ 20 | 20 to 200
5 | CCN1CCN(Cc2ccc(Nc3ncc(F)c(-c4sc5c(nc(C)n5C5CCC5)c4C)n3)nc2)CC1 [Example 10, 4-(3-Cyclobutyl-2,6-dimethylthieno[2,3-d]imidazol-5-yl)-N-[5-[(4-ethylpiperazin-1-yl)methyl]pyridin-2-yl]-5-fluoropyrimidin-2-amine] | ≤ 20 | 200 to 2000
6 | Cc1c(-c2nc(Nc3ccc(N4CCC(F)(F)C4)cn3)ncc2F)sc2c1nc(C)n2C1CCCC1 [Example 11, 4-(3-Cyclopentyl-2,6-dimethyl-3H-thieno[2,3-d]imidazol-5-yl)-N-(5-(3,3-difluoropyrrolidin-1-yl)pyridin-2-yl)-5-fluoro-pyrimidin-2-amine] | 20 to 200 | 200 to 2000
7 | CCN1CCN(Cc2ccc(Nc3ncc(F)c(-c4sc5c(nc(C)n5C5CCCC5)c4C)n3)nc2)CC1 [Example 12, 4-(3-Cyclopentyl-2,6-dimethyl-3H-thieno[2,3-d]imidazol-5-yl)-N-(5-((4-ethylpiperazin-1-yl)methyl)pyridin-2-yl)-5-fluoropyrimidin-2-amine] | 200 to 2000 | –
8 | CCN1CC2(C1)CN(c1ccc(Nc3ncc(F)c(-c4cc5nccc(C6CCCC6)c5s4)n3)nc1)C2 [Example 15, 4-(7-Cyclopentylthieno[3,2-b]pyridin-2-yl)-N-[5-(6-ethyl-2,6-diazaspiro[3.3]heptan-2-yl)pyridin-2-yl]-5-fluoropyrimidin-2-amine] | ≤ 20 | –
9 | Cc1c(-c2nc(Nc3ccc(N4CCNCC4)cn3)ncc2F)sc2c(C3CCCC3)ccnc12 [Example 35, 4-(7-Cyclopentyl-3-methylthieno[3,2-b]pyridin-2-yl)-5-fluoro-N-(5-(piperazin-1-yl)pyridin-2-yl)pyrimidin-2-amine] | ≤ 20 | –
10 | Cc1nc2cc(-c3nc(Nc4ccc(CN5CCC(C(=O)N(C)C)C5)cn4)ncc3F)sc2n1C(C)C (stereo not drawn) [Example 65, 1-[[6-[[5-Fluoro-4-(2-methyl-3-propan-2-ylthieno[2,3-d]imidazol-5-yl)pyrimidin-2-yl]amino]pyridin-3-yl]methyl]-N,N-dimethylpyrrolidine-3-carboxamide] | 20 to 200 | –
11 | Cc1c(-c2nc(Nc3ccc(N4CC5(CN(C)CC5(F)F)C4)cn3)ncc2F)sc2c1nc(C)n2C(C)C [Example 70, N-[5-(5,5-Difluoro-7-methyl-2,7-diazaspiro[3.4]octan-2-yl)pyridin-2-yl]-4-(2,6-dimethyl-3-propan-2-ylthieno[2,3-d]imidazol-5-yl)-5-fluoropyrimidin-2-amine] | ≤ 20 | –
12 | Cc1c(-c2nc(Nc3ccc(N4CCC5(CCN(C)C5)C4)cn3)ncc2F)sc2c(C(C)C)cn(C)c(=O)c12 (stereo not drawn) [Example 76, 2-(5-Fluoro-2-((5-(7-methyl-2,7-diazaspiro[4.4]nonan-2-yl)pyridin-2-yl)amino)pyrimidin-4-yl)-7-isopropyl-3,5-dimethylthieno[3,2-c]pyridin-4(5H)-one] | ≤ 20 | –
13 | CCN1CC2(C1)CN(c1ccc(Nc3ncc(F)c(-c4sc5c(C6CC6)n(C)nc5c4C)n3)nc1)C2 [Example 101, 4-(3-Cyclopropyl-2,6-dimethyl-2H-thieno[3,2-c]pyrazol-5-yl)-N-(5-(6-ethyl-2,6-diazaspiro[3.3]heptan-2-yl)pyridin-2-yl)-5-fluoropyrimidin-2-amine] | 20 to 200 | –
14 | CCN1CCN(c2ccc(Nc3ncc(F)c(-c4sc5c(C(C)=O)n(C)nc5c4C)n3)nc2)CC1 [Example 103, 1-(5-(2-((5-(4-ethylpiperazin-1-yl)pyridin-2-yl)amino)-5-fluoropyrimidin-4-yl)-2,6-dimethyl-2H-thieno[3,2-c]pyrazol-3-yl)ethan-1-one] | 200 to 2000 | –
15 | CCN1CCN(c2ccc(Nc3ncc(F)c(-c4sc5c(C(C)O)n(C)nc5c4C)n3)nc2)CC1 (stereo not drawn) [Example 104, 1-(5-(2-((5-(4-Ethylpiperazin-1-yl)pyridin-2-yl)amino)-5-fluoropyrimidin-4-yl)-2,6-dimethyl-2H-thieno[3,2-c]pyrazol-3-yl)ethan-1-ol] | 20 to 200 | –
16 | CCN1CCN(c2ccc(Nc3ncc(F)c(-c4sc5c(C(C)C)nn(C)c5c4C)n3)nc2)CC1 [Example 106, 4-(1,6-Dimethyl-3-propan-2-ylthieno[3,2-c]pyrazol-5-yl)-N-[5-(4-ethylpiperazin-1-yl)pyridin-2-yl]-5-fluoropyrimidin-2-amine] | 200 to 2000 | –
17 | Cc1nc2cc(-c3nc(Nc4cccnn4)ncc3F)sc2n1C(C)C [Example 107, N-(5-Fluoro-4-(3-isopropyl-2-methyl-3H-thieno[2,3-d]imidazol-5-yl)pyrimidin-2-yl)pyridazin-3-amine] | 20 to 200 | –
18 | CN1CCC(c2ccc(Nc3ncc(F)c(-c4cc5c(=O)n(C)nc(C67CC(F)(C6)C7)c5s4)n3)nc2)CC1 [Example 110, 2-(5-Fluoro-2-((5-(1-methylpiperidin-4-yl)pyridin-2-yl)amino)pyrimidin-4-yl)-7-(3-fluorobicyclo[1.1.1]pentan-1-yl)-5-methylthieno[2,3-d]pyridazin-4(5H)-one] | 200 to 2000 | –
19 | CCN1CCN(c2cccc(Nc3ncc(F)c(-c4sc5c(nc(C)n5C(C)C)c4C)n3)n2)CC1 [Example 113, 4-(2,6-Dimethyl-3-propan-2-ylthieno[2,3-d]imidazol-5-yl)-N-[6-(4-ethylpiperazin-1-yl)pyridin-2-yl]-5-fluoropyrimidin-2-amine] | 200 to 2000 | –
20 | CCN1CCN(C(C)c2ccc(Nc3ncc(F)c(-c4cc5nc(C)n(C(C)C)c5s4)n3)nc2)CC1 (stereo not drawn) [Example 116, N-[5-[1-(4-Ethylpiperazin-1-yl)ethyl]pyridin-2-yl]-5-fluoro-4-(2-methyl-3-propan-2-ylthieno[2,3-d]imidazol-5-yl)pyrimidin-2-amine] | ≤ 20 | –
21 | Cc1nc2cc(-c3nc(Nc4ccc(C5C(=O)N(C)CCN5C)cn4)ncc3F)sc2n1C(C)C (stereo not drawn) [Example 117, 3-[6-[[5-Fluoro-4-(2-methyl-3-propan-2-ylthieno[2,3-d]imidazol-5-yl)pyrimidin-2-yl]amino]pyridin-3-yl]-1,4-dimethylpiperazin-2-one] | ≤ 20 | –
22 | CCN1CCN(c2ccnc(Nc3ncc(F)c(-c4sc5c(nc(C)n5C(C)C)c4C)n3)c2)CC1 [Example 119, 4-(2,6-Dimethyl-3-propan-2-ylthieno[2,3-d]imidazol-5-yl)-N-[4-(4-ethylpiperazin-1-yl)pyridin-2-yl]-5-fluoropyrimidin-2-amine] | 200 to 2000 | –
23 | CCN1CCN(c2ccc(Nc3ncc(F)c(-c4sc5c(C(C)C)ccnc5c4C#N)n3)nc2)CC1 [Example 122, 2-(2-((5-(4-Ethylpiperazin-1-yl)pyridin-2-yl)amino)-5-fluoropyrimidin-4-yl)-7-isopropylthieno[3,2-b]pyridine-3-carbonitrile] | 20 to 200 | –
24 | COc1cnc(Nc2ccc(C3CCN(C)CC3)cn2)nc1-c1cc2nc(C)n(C(C)C)c2s1 [Example 127, 4-(3-Isopropyl-2-methyl-3H-thieno[2,3-d]imidazol-5-yl)-5-methoxy-N-(5-(1-methylpiperidin-4-yl)pyridin-2-yl)pyrimidin-2-amine] | 20 to 200 | –
